Results: US11407725B2 (The Board of Trustees of the University of Illinois, priority 2018, dated 2022)
“And” between values parts separate entries of the source, which are not always exact repeats. Equal values may be shown once.

Tests used:
[1] = Response to reactive species, biological thiols and amines (chemostability)
Description: (e) Response of AlDeSense to various reactive oxygen species, biological thiols, and amines at concentrations of 100 μM (GSH was tested at 1 mM). For all assays, AlDeSense was used at 1 μM final concentration.
All assays were performed in 50 mM triethanolamine buffer red-AlDeSense was used at 2 μM. Enzyme concentrations affording 1 nmol substrate/minute were used. Reactive species were tested at 100 μM, except glutathione which was at 1 mM.

[2] = test system: B16F0 melanoma cells; experiment: B16F0 melanoma confocal imaging (e-CSC vs non-CSC); assay type: cell-based, murine
Description: B16F0 Melanoma Confocal Imaging. B16F0 murine melanoma cells were cultured for 5 days on polyacrylamide hydrogels with or without spiral patterns as described previously (Drug Discov Today 2014, 19, 1953). The coverslips on which the hydrogels and cells were mounted were transferred to a glass-bottomed dish for confocal imaging, leaving the cells intact. Solutions of either 2 μM AlDeSense AM or 2 μM Ctrl-AlDeSense AM in PBS were added to the two types of cells. The cells were incubated at room temperature for 1 h and then immediately imaged. Confocal imaging was performed on a Zeiss LSM700 Confocal Microscope, utilizing the 488 nm laser line to excite AlDeSense AM and the 20×/0.8 objective. Three different coverslips of cells were imaged for each set of conditions and at least 6 μmages were taken for each coverslip. Using ImageJ, ROIs were drawn around areas covered with cells and mean fluorescence values were measured for each image.

[3] = test system: K562 cells; experiment: Trypan blue cytotoxicity / viability assay; assay type: cell-based; details: K562 cells; 6, 12 and 24 hours
Description: K562 cells were plated in a 96-well plate with 50,000 cells per well. Each well was filled to a final volume of 100 μL IMDM media with 0.25% DMSO. Wells were tested using red-AlDeSense or Ctrl-red-AlDeSense (1 μM and 5 μM each) or using a DMSO control. After 6-, 12-, and 24-hour incubation periods at 37° C. and 5% CO2, a 10 μL sample was removed from each condition and combined with 10 μL 0.4% w/v trypan blue in PBS. Samples were incubated for 3 minutes at room temperature before being loaded on a hemocytometer where live and dead cells were counted. Conditions were tested in triplicate for each time point. Samples were analyzed on an EVOS digital inverted microscope using transmitted white light for brightfield imaging and the Cy5 filter cube for trypan blue visualization.
K562 cells were plated in a 96-well plate at a density of 500,000 cells/mL in full IMDM media supplemented with either 1 μM or […] AlDeSense AM. Equivalent samples were supplemented with 1 μM or […] as a vehicle control. At 6, 12, and 24 hours, a 10 μL sample was removed from each of the samples and mixed 1:1 with a 0.4% wt/volume trypan blue solution in PBS. Samples were incubated for 1 minute at room temperature before being loaded onto a hemocytometer where live and dead cells were counted. Each sample was made in triplicate for each time point.

[4] = Photophysical properties (absorbance, emission, extinction coefficient, quantum yield); assay type: physicochemical; details: for λabs: maximum absorbance
[5] = molecular target: T1, ALDH1A1 (Homo sapiens, UniProt P00352); experiment: ALDH1A1 kinetics; assay type: biochemical
T1 construct: made in house
T1 sequence (P00352 1-501): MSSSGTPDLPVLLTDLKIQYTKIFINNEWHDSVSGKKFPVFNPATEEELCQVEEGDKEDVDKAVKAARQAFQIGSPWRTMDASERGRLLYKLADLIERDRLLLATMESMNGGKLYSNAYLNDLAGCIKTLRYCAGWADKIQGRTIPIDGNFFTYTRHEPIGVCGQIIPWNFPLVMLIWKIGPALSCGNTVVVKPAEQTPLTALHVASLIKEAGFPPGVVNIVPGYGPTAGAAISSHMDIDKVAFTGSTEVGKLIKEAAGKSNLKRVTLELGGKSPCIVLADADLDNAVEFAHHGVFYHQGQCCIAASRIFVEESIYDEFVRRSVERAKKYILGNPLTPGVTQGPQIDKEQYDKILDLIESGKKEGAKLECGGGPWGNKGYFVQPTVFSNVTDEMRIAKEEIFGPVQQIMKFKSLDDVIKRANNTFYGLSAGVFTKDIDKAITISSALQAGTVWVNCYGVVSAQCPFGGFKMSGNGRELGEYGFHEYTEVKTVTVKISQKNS
Description: Solutions were prepared of 2.0 mM NAD+ and 0.1-2.5 μM AlDeSense or red-AlDeSense in 50 mM triethanolamine solution (pH 7.4). For every concentration, 1 unit of enzyme (as defined and determined in ALDH Isoform Selectivity) was added. Fluorescence was monitored for 30 seconds to determine V0. AlDeSense was excited at 490 nm and monitored at 510 nm. Red-AlDeSense was excited at 590 nm and monitored at 610 nm. Each condition was performed in triplicate. Protein concentration was determined using the Pierce™ BCA Protein Assay Kit. Data was analyzed using Microsoft Excel.

[6] = test system: K562 cells; experiment: Flow cytometry of K562 cells with red-AlDeSense; assay type: cell-based, human; details: 1 μM dye
Description: For all cell lines, 200,000 cells in a single-cell suspension were transferred into 1.5 mL Eppendorf tubes. Cells were pelleted by centrifugation at 400 g for 5 minutes at room temperature. After removing the supernatant by aspiration, cells were resuspended in 300 μL premixed PBS supplemented with verapamil, probenecid, and novobiocin. […] Samples were immediately stored on ice. Cells were stained with red-AlDeSense or Ctrl-red-AlDeSense (100 μL of 4 μM dye solution; dyes were normalized by fluorescence spectroscopy). Samples were analyzed on a BD LSR II Flow Cytometry Analyzer using a 488 nm laser and a 550 LP and 610/30 filter set. Samples were analyzed every 5 minutes for 15 minutes, with the samples being placed back on ice between data collection. Data were analyzed on FCS Express 6.04.

Structure (SMILES)	response to thiols and amines ([1]; 100 μM (GSH 1 mM), 1 μM AlDeSense)	response to panel of reactive oxygen species ([1]; 100 μM species, 1 μM AlDeSense)	brightness of e-CSCs versus e-CSCs treated with Ctrl-AlDeSense [2] [fold]	brightness of e-CSCs versus non-CSCs ([2]; both stained with AlDeSense) [fold]	toxicity in cell viability assay [3]	ε [4] [M⁻¹ cm⁻¹]	λcm ([4]; Table 1) [nm]	ΔE00 ([4]; at 503 nm, intersecting wavelength of normalized absorbance and emission) [eV]	λabs [4] [nm]	ΦF ([4]; prior to activation)	higher catalytic efficiency (kcat/Km) versus AlDeSense [5] [fold]	chemostability across reactive oxygen, nitrogen and sulfur species ([1]; species 100 μM, glutathione 1 mM, 2 μM red-AlDeSense)	K562 cells with high ALDH1A1 activity [6] [%]	bathochromic shift in absorbance and emission compared to AlDeSense [4] [nm]	maximum emission (λem) [4] [nm]	Quantum Yield ([4]; Probes 1-8)
Cc1cc(C=O)ccc1-c1c2cc(F)c(=O)cc-2oc2cc(O)c(F)cc12 [AlDeSense]	did not detect formation of fluorescent hemithioacetal and Schiff base products	did not observe any oxidized fluorescent products	9.0	11.3	non-toxic	61000	516	2.46	496	0.04 and 0.041						
Cc1cc(C=O)c(F)c(F)c1C1=C2C=CC(=O)C=C2[Si](C)(C)c2cc(O)ccc21					nontoxic				594		2.3	only ALDH1A1 elicited turnover	39.0±8.3	100	614	0.21
